Results reported in ChEMBL document CHEMBL1127066, “Discovery and structure-activity relationship of a series of 1-carba-1-dethiacephems exhibiting activity against methicillin-resistant Staphylococcus aureus” (J Med Chem, 1993).

Experiments:
Format in all cases: functional
Escherichia coli = experiment: In vitro evaluation of antimicrobial activity against Escherichia coli EC14 strain
Enterobacter cloacae = experiment: In vitro evaluation of antimicrobial activity against Enterobacter cloacae EB5 strain
Haemophilus influenzae = experiment: In vitro antimicrobial activity against Haemophilus influenzae C.L. strain
Klebsiella = experiment: In vitro antimicrobial activity against Klebsiella X26 strain
Pseudomonas aeruginosa [1] = experiment: Antimicrobial activity against Pseudomonas PS18 strain
Pseudomonas aeruginosa [2] = experiment: In vitro antimicrobial activity against Pseudomonas X239 strain
[3] = system: Staphylococcus epidermidis; experiment: In vitro antimicrobial activity against Staphylococcus epidermidis 222 strain
[4] = system: Staphylococcus epidermidis; experiment: In vitro antimicrobial activity against Staphylococcus epidermidis 270 strain
Staphylococcus aureus [5] = experiment: In vitro antimicrobial activity against Staphylococcus aureus S13E strain
Staphylococcus aureus [6] = experiment: In vitro antimicrobial activity against Staphylococcus aureus X400 strain
Streptococcus pneumoniae = experiment: In vitro antimicrobial activity against Streptococcus pneumoniae PARK strain
Staphylococcus aureus [7] = experiment: In vitro antimicrobial activity against Staphylococcus aureus X1.1 strain

| SMILES | MIC (Escherichia coli) [mg/L] | MIC (Enterobacter cloacae) [mg/L] | MIC (Haemophilus influenzae) [mg/L] | MIC (Klebsiella) [mg/L] | MIC (Pseudomonas aeruginosa [1]) [mg/L] | MIC (Pseudomonas aeruginosa [2]) [mg/L] | MIC [3] [mg/L] | MIC [4] [mg/L] | MIC (Staphylococcus aureus [5]) [mg/L] | MIC (Staphylococcus aureus [6]) [mg/L] | MIC (Streptococcus pneumoniae) [mg/L] | MIC (Staphylococcus aureus [7]) [mg/L] |
| --- | --- | --- | --- | --- | --- | --- | --- | --- | --- | --- | --- | --- |
| Nc1nc(/C(=N\OCCF)C(=O)N[C@@H]2C(=O)N3C(C(=O)[O-])=C(Sc4ncccn4)CC[C@H]23)cs1.[Na+] | 0.125 | 1 | 0.03 | 0.015 | > 128 | > 128 | 4 | 8 | 32 | 128 | 0.03 | 2 |
| Nc1nc(/C(=N\OCCF)C(=O)N[C@@H]2C(=O)N3C(C(=O)[O-])=C(SC4=NCCS4)CC[C@H]23)cs1.[Na+] | 0.125 | 1 | < 0.008 | 0.015 | 64 | < 128 | 1 | 2 | 16 | 64 | < 0.008 | 0.5 |
| Cn1nnnc1SC1=C(C(=O)[O-])N2C(=O)[C@@H](NC(=O)/C(=N/OCCF)c3csc(N)n3)[C@H]2CC1.[Na+] | 0.06 | 0.5 | 0.015 | < 0.008 | > 128 | 16 | 2 | 4 | 128 | > 128 | 0.015 | 0.5 |
| Nc1nc(/C(=N\OCCF)C(=O)N[C@@H]2C(=O)N3C(C(=O)[O-])=C(Sc4nc(C(=O)O)cs4)CC[C@H]23)cs1.[Na+] | 0.25 | 4 | 0.015 | 0.25 | 128 | > 128 | 4 | 8 | – | > 128 | 0.015 | 2 |
| Nc1nc(/C(=N\OCCF)C(=O)N[C@@H]2C(=O)N3C(C(=O)[O-])=C(Sc4snc5ccccc45)CC[C@H]23)cs1.[Na+] | 0.25 | 0.5 | 0.03 | 0.03 | 16 | 32 | 0.5 | 2 | 32 | 64 | < 0.008 | 0.125 |
| CC(=O)c1sc(SC2=C(C(=O)[O-])N3C(=O)[C@@H](NC(=O)/C(=N/OCCF)c4csc(N)n4)[C@H]3CC2)nc1C.[Na+] | 1 | 8 | 0.06 | 0.125 | > 128 | > 128 | 2 | 8 | 32 | 128 | < 0.008 | 0.5 |
| Cc1nc(SC2=C(C(=O)[O-])N3C(=O)[C@@H](NC(=O)/C(=N/OCCF)c4csc(N)n4)[C@H]3CC2)sc1C.[Na+] | 0.5 | 4 | 0.015 | 0.06 | 64 | 8 | 1 | 2 | 4 | 32 | < 0.008 | 0.5 |
| Nc1nc(/C(=N\OCCF)C(=O)N[C@@H]2C(=O)N3C(C(=O)[O-])=C(Sc4nc5ccccc5o4)CC[C@H]23)cs1.[Na+] | 0.25 | 1 | 0.03 | 0.015 | 32 | 32 | 1 | 2 | 2 | 64 | < 0.008 | 0.125 |
| Nc1nc(/C(=N\OCCF)C(=O)N[C@@H]2C(=O)N3C(C(=O)[O-])=C(Sc4nc5c(=O)[nH]c(=O)[nH]c5s4)CC[C@H]23)cs1.[Na+] | 0.06 | 1 | < 0.008 | 0.06 | 64 | > 128 | 2 | 8 | 16 | 128 | < 0.008 | 2 |
| Nc1ccc2nc(SC3=C(C(=O)[O-])N4C(=O)[C@@H](NC(=O)/C(=N/OCCF)c5csc(N)n5)[C@H]4CC3)sc2c1.[Na+] | 0.25 | 2 | 0.03 | 0.03 | 128 | > 128 | 1 | 1 | 4 | 16 | < 0.008 | 0.25 |
| Nc1nc(/C(=N\OCCF)C(=O)N[C@@H]2C(=O)N3C(C(=O)[O-])=C(Sc4nnc(O)c(O)n4)CC[C@H]23)cs1.[Na+] | 0.06 | 0.5 | 0.03 | 0.06 | > 128 | > 128 | 8 | 32 | – | > 128 | 0.06 | 4 |
| Nc1nc(/C(=N\OCCF)C(=O)N[C@@H]2C(=O)N3C(C(=O)[O-])=C(Sc4ccncc4)CC[C@H]23)cs1.[Na+] | 0.06 | 0.5 | 0.015 | 0.015 | 64 | 16 | 1 | 2 | 32 | 64 | < 0.008 | 0.5 |
| CCOc1ccc2nc(SC3=C(C(=O)[O-])N4C(=O)[C@@H](NC(=O)/C(=N/OCCF)c5csc(N)n5)[C@H]4CC3)sc2c1.[Na+] | 1 | 4 | 0.125 | 0.06 | 128 | > 128 | 1 | 0.5 | 8 | 8 | < 0.008 | 0.25 |
| Cc1csc(SC2=C(C(=O)[O-])N3C(=O)[C@@H](NC(=O)/C(=N/OCCF)c4csc(N)n4)[C@H]3CC2)n1.[Na+] | 0.25 | 2 | < 0.008 | < 0.008 | 32 | 64 | 0.5 | 4 | 4 | 64 | < 0.008 | 0.5 |
| Cn1ccnc1SC1=C(C(=O)[O-])N2C(=O)[C@@H](NC(=O)/C(=N/OCCF)c3csc(N)n3)[C@H]2CC1.[Na+] | 0.5 | 4 | 0.03 | 0.06 | > 128 | > 128 | 8 | 32 | – | > 128 | < 0.008 | 4 |
| Nc1nc(/C(=N\OCCF)C(=O)N[C@@H]2C(=O)N3C(C(=O)[O-])=C(Sc4nc(C(=O)OCc5ccccc5)cs4)CC[C@H]23)cs1.[Na+] | 0.25 | 2 | 0.03 | 0.015 | 64 | 128 | 0.5 | 2 | 8 | 32 | < 0.008 | 0.25 |
| Nc1nc(/C(=N\OCCF)C(=O)N[C@@H]2C(=O)N3C(C(=O)[O-])=C(Sc4nccnc4N)CC[C@H]23)cs1.[Na+] | 0.125 | 1 | 0.015 | 0.015 | 16 | 128 | 1 | 4 | 32 | > 128 | < 0.008 | 0.5 |
| Nc1nc(/C(=N\OCCF)C(=O)N[C@@H]2C(=O)N3C(C(=O)[O-])=C(Sc4ccccc4)CC[C@H]23)cs1.[Na+] | 0.5 | 4 | 0.03 | 0.03 | 64 | 128 | 2 | 2 | 64 | 128 | 0.015 | 0.5 |
| CCCCOC(=O)c1csc(SC2=C(C(=O)[O-])N3C(=O)[C@@H](NC(=O)/C(=N/OCCF)c4csc(N)n4)[C@H]3CC2)n1.[Na+] | 0.5 | 4 | 0.03 | 0.03 | 128 | > 128 | 1 | 4 | 16 | 64 | < 0.008 | 0.5 |
| Nc1nc(/C(=N\OCCF)C(=O)N[C@@H]2C(=O)N3C(C(=O)[O-])=C(Sc4nc5ccccc5[nH]4)CC[C@H]23)cs1.[Na+] | 0.125 | 1 | 0.015 | 0.015 | 32 | 32 | 2 | 8 | 16 | 128 | < 0.008 | 2 |
| COC(=O)c1sc(SC2=C(C(=O)[O-])N3C(=O)[C@@H](NC(=O)/C(=N/OCCF)c4csc(N)n4)[C@H]3CC2)nc1C.[Na+] | 2 | 8 | 0.06 | 0.125 | > 128 | > 128 | 2 | 8 | 16 | 128 | < 0.008 | 0.25 |
| Nc1nc(/C(=N\OCCF)C(=O)N[C@@H]2C(=O)N3C(C(=O)[O-])=C(Sc4cccc[n+]4[O-])CC[C@H]23)cs1.[Na+] | 0.125 | 2 | 0.015 | 0.06 | 128 | > 128 | 2 | 8 | 64 | 128 | 0.15 | 2 |
| CCOc1nn(C)c(SC2=C(C(=O)[O-])N3C(=O)[C@@H](NC(=O)/C(=N/OCCF)c4csc(N)n4)[C@H]3CC2)nc1=O.[Na+] | 0.5 | 2 | 0.03 | 0.06 | > 128 | 128 | 4 | 16 | 128 | > 128 | 0.03 | 0.5 |
